Columns and labels:
Experiment in all cases: relative viability (nuclei count vs DMSO), 5 days (fraction); higher = more cells survive
Vemurafenib + Vorinostat = compound: CCCS(=O)(=O)Nc1ccc(F)c(C(=O)c2c[nH]c3ncc(-c4ccc(Cl)cc4)cc23)c1F [Vemurafenib] + O=C(CCCCCCC(=O)Nc1ccccc1)NO [Vorinostat] (partner 1 µM)
Summary of the method: (§1)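 The day after seeding in 1536-well plates, lung cancer cell lines were treated by pin tool with a single drug, or with a fixed anchor-drug dose together with five library-drug doses (not always all listed) in √10 steps. After 5 days, a combined fix-and-stain solution (final 0.05% Triton X-100, 1% formaldehyde, 1 ug/ml Hoechst) was added. Nuclei counted on 4× images gave relative viability as treated counts over vehicle counts, reported as the median of duplicate plates.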

OSI-027 + Pictilisib = compound: COc1cccc2cc(-c3nc([C@H]4CC[C@H](C(=O)O)CC4)n4ncnc(N)c34)[nH]c12 [OSI-027] + CS(=O)(=O)N1CCN(Cc2cc3nc(-c4cccc5[nH]ncc45)nc(N4CCOCC4)c3s2)CC1 [Pictilisib] (partner 1 µM)
Summary of the method: as §1

Alpelisib + OSI-027 = compound: Cc1nc(NC(=O)N2CCC[C@H]2C(N)=O)sc1-c1ccnc(C(C)(C)C(F)(F)F)c1 [Alpelisib] + COc1cccc2cc(-c3nc([C@H]4CC[C@H](C(=O)O)CC4)n4ncnc(N)c34)[nH]c12 [OSI-027] (partner 0.5 µM)
Summary of the method: as §1

Alpelisib + Pemetrexed = compound: Cc1nc(NC(=O)N2CCC[C@H]2C(N)=O)sc1-c1ccnc(C(C)(C)C(F)(F)F)c1 [Alpelisib] + Nc1nc2[nH]cc(CCc3ccc(C(=O)N[C@@H](CCC(=O)O)C(=O)O)cc3)c2c(=O)[nH]1 [Pemetrexed] (partner 0.2 µM)
Summary of the method: as §1

| Cell Line | relative viability (Vemurafenib + Vorinostat; first compound 0.3162 µM) | relative viability (Vemurafenib + Vorinostat; first compound 1 µM) | relative viability (OSI-027 + Pictilisib; first compound 0.01 µM) | relative viability (OSI-027 + Pictilisib; first compound 0.03162 µM) | relative viability (OSI-027 + Pictilisib; first compound 0.1 µM) | relative viability (OSI-027 + Pictilisib; first compound 0.3162 µM) | relative viability (OSI-027 + Pictilisib; first compound 1 µM) | relative viability (Alpelisib + OSI-027; first compound 0.04 µM) | relative viability (Alpelisib + OSI-027; first compound 0.1265 µM) | relative viability (Alpelisib + OSI-027; first compound 0.4 µM) | relative viability (Alpelisib + OSI-027; first compound 1.265 µM) | relative viability (Alpelisib + OSI-027; first compound 4 µM) | relative viability (Alpelisib + Pemetrexed; first compound 0.04 µM) | relative viability (Alpelisib + Pemetrexed; first compound 0.1265 µM) | relative viability (Alpelisib + Pemetrexed; first compound 0.4 µM) | relative viability (Alpelisib + Pemetrexed; first compound 1.265 µM) | relative viability (Alpelisib + Pemetrexed; first compound 4 µM) | relative viability (Vemurafenib + Vorinostat; first compound 0.1 µM) | relative viability (Vemurafenib + Vorinostat; first compound 0.03162 µM) |
| --- | --- | --- | --- | --- | --- | --- | --- | --- | --- | --- | --- | --- | --- | --- | --- | --- | --- | --- | --- |
| PC-3 [JPC-3] | 0.66 | 1.06 | 0.68 | 0.675 | 0.697 | 0.62 | 0.521 | 0.831 | 0.642 | 0.68 | 0.593 | 0.488 | 1.23 | 0.559 | 1.12 | 0.969 | 0.801 | – | – |
| NCI-H1648 | 0.706 | 0.546 | – | – | – | – | – | – | 0.229 | 0.244 | 0.282 | 0.228 | 0.661 | 0.743 | 0.894 | 0.559 | 0.482 | 0.315 | – |
| NCI-H1651 | 0.471 | 0.625 | 0.538 | – | 0.504 | 0.464 | 0.282 | 0.638 | 0.688 | 0.646 | 0.569 | 0.473 | 0.543 | 0.525 | 0.594 | 0.541 | 0.538 | 0.581 | 0.524 |
| NCI-H596 | 0.465 | 0.497 | 0.41 | 0.435 | 0.361 | 0.317 | 0.311 | 0.629 | 0.571 | 0.589 | 0.457 | 0.357 | 0.44 | 0.446 | 0.503 | 0.41 | 0.42 | 0.742 | 0.587 |
| HARA | 0.399 | 0.54 | 0.334 | 0.402 | 0.397 | 0.242 | 0.258 | 0.396 | 0.287 | 0.48 | 0.255 | 0.164 | 0.254 | 0.249 | 0.26 | 0.23 | 0.274 | 0.517 | 0.424 |
| NCI-H727 | 1.41 | 1.27 | 0.3 | 0.247 | 0.351 | 0.246 | 0.319 | 0.753 | 0.397 | 0.522 | 0.359 | 0.391 | – | – | – | – | – | 0.978 | 1.01 |
| Calu-6 | – | – | 0.94 | 0.762 | 0.655 | 0.544 | 0.319 | – | – | – | – | – | – | – | – | – | – | – | – |
| NCI-H1993 | 1.02 | 0.876 | 0.808 | 0.906 | 0.86 | 0.798 | 0.691 | 0.596 | 0.492 | 0.524 | 0.571 | 0.521 | 0.606 | 0.544 | 0.571 | 0.545 | 0.432 | – | 0.739 |
| HCC-366 | – | 0.306 | 0.179 | 0.154 | 0.165 | 0.124 | 0.0569 | 0.867 | 0.877 | 0.762 | 0.473 | 0.355 | 0.175 | 0.232 | 0.296 | 0.342 | 0.254 | 0.38 | 0.271 |
| IA-LM | 0.946 | 0.966 | 0.423 | 0.176 | 0.181 | 0.119 | 0.107 | – | – | – | – | – | – | – | – | – | – | 0.914 | 0.975 |
| EPLC-272H | 0.528 | 0.543 | 0.287 | 0.308 | 0.296 | 0.316 | 0.215 | 0.214 | 0.268 | 0.274 | 0.23 | 0.195 | 0.394 | 0.363 | 0.355 | 0.276 | 0.238 | 0.4 | 0.553 |

Source: the supplement of paper PMC10307832
